Measurements taken from ChEMBL document CHEMBL3430912, “GSK Tres Cantos Anti-Kinetoplastid Screening (TCAKS) Data”.

Legend:
Leishmania donovani [1] = assay: (§1) GSK_TCAKS: pIC50 Leishmania donovani Imaging: Amastigotes/Macrophages. Assay plates (384-well) were prepared by adding 250nL of compound to each well. For single shot assay, the final compound concentration was 5 uM. […] Automated image analysis was performed with a script developed on Acapella High Content Imaging and Analysis Software (PerkinElmer). Output: Average number of amastigotes per macrophage cell were reported for each well.; format: functional, organism-based, Homo sapiens; details: THP-1
Trypanosoma cruzi [2] = assay: (§2) GSK_TCAKS: pIC50 Trypanosoma cruzi Imaging: Infected Cells. […] Cells were then washed once with PBS before infection. T. cruzi trypomastigotes, collected at days 5 to 8 after infection from LLC-MK2 parasite infected cultures, were allowed to swim out for 4h at 37C from a centrifuged pellet (2,500 rpm/10 min/room temperature). Trypomastigotes were then collected and counted in a CASY Cell Counter. Trypomastigotes, in supplemented DMEM, were added to H9c2 cultures in a multiplicity of infection of 1 and incubated for 18 h. Cells were washed once with PBS before incubation of the infected H9c2 monolayer with trypsin (Life-Technologies) to detach cells from the flask. Cells were counted in a CASY Cell Counter using a 150 um capillary and their density set at 5 * 10^4 cells per mL in supplemented assay DMEM. Infected H9c2 were dispensed into 384-well poly-lysine coated assay plates at 50uL per well using a Multidrop Combi dispenser. After seeding them, the plates were incubated at 37C, 5% CO2 for 72h. Cultures were then fixed and stained by addition of 50 uL of a solution containing 8% formaldehyde and 4 uM DRAQ5 DNA dye (BioStatus, UK) per well. […] Five images were collected per well for reliable statistical analysis. Automated image analysis was performed with a script developed on Acapella High Content Imaging and Analysis Software (PerkinElmer). Output: percentage of infected cells per well as a second infection marker.; format: functional, organism-based, Rattus norvegicus; details: H9c2, 4 h
Leishmania donovani [3] = assay: as §1, with “Infected Macrophages.” for “Amastigotes/Macrophages.”, “Percent” for “Average number”, “infected” for “amastigotes per”, “cells” for “cell”; format: functional, organism-based, Homo sapiens; details: THP-1
[4] = test system: Trypanosoma brucei brucei; assay: GSK_TCAKS: pIC50 Trypanosoma brucei viability assay using luminiscence. Assay plates (1536-well) were prepared. T. brucei cultures were harvested and counted in a CASY cell counter. A parasite suspension was prepared at a final concentration of 5 * 10^4 cells/mL in complete HMI9 medium and 6uL was dispensed to all wells containing compounds using a Multidrop Combi dispenser. 6uL of HMI9 media with 0.4% DMSO were dispensed to control columns. Plates were incubated for 24 h at 37C, 5% CO2 then tempered for 10 min at room temperature. ATP content was quantified by adding 4 uL of CellTiter-Glo Reagent (Promega) according to the manufacturer's instructions. Luminescence was measured using a ViewLux.; format: functional, organism-based; details: Lister 427, CASY
[5] = molecular target: Sterol 14-alpha demethylase (Trypanosoma cruzi (strain CL Brener), UniProt Q7Z1V1); assay: GSK_TCAKS: pIC50 CYP51 from Trypanosoma cruzi.; format: functional
Sequence of Sterol 14-alpha demethylase (Q7Z1V1 whole entry): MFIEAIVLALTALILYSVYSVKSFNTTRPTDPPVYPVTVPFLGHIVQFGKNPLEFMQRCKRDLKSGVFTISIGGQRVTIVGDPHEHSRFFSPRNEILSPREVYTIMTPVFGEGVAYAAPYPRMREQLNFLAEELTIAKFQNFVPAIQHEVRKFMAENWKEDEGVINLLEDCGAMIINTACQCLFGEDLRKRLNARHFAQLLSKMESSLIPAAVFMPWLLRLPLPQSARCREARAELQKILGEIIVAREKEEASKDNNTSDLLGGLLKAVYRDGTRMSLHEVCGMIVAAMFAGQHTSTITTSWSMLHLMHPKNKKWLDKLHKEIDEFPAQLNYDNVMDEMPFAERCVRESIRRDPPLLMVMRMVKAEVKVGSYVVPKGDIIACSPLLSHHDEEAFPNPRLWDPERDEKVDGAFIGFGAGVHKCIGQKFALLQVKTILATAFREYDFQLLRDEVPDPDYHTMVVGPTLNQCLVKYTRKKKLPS

[6] = GSK_TCAKS: pIC50 HepG2 human cell line viability assay using luminiscence. […] Seeding density was checked to ensure that new mono-layers were not more than 50% confluent at the time of harvesting. Cell suspension was added to 500 mL of the same medium at a final density of 1.2 * 10^5 cells/mL. This cell suspension was dispensed (25 uL, 3000 cells per well) into 384-well clear-bottom plates using a Multidrop Combi dispenser. Prior to addition of the cell suspension, the screening compounds (250 nL) were pre-dispensed into the plates with an Echo liquid handler. Plates were incubated for 48 h at 37C, 5% CO2. After incubation, plates equilibrated at room temperature for 30 min before proceeding to develop the luminescent signal. The signal developer, CellTiter-Glo Reagent, was allowed to equilibrate at room temperature for 30 min and added to the plates (25uL per well) using a Multidrop Combi dispenser. Plates were left for 10 min at room temperature for stabilization and then read using a ViewLux.; format: toxicity, cell-based
Leishmania donovani [7] = assay: GSK_TCAKS: pIC50 Leishmania donovani viability assay using fluorescence intensity. Assay plates (1536-well) were prepared by adding 30nL per well of compound. For single shot assay, the final compound concentration was 5uM. […] Briefly, eGFP LdBOB axenic amastigotes were harvested, fixed and counted in a CASY cell counter (Roche-Applied Science). A final concentration of 1.5 * 10^5 cells per well were prepared in amastigote media containing 500 U/mL penicillin/streptomycin (Invitrogen) and 6uL was dispensed to each experimental well using a Multidrop Combi dispenser (Thermo Scientific). 6uL of assay media was dispensed to control columns used as reference for 100% compound response. Following incubation for 72 h at 37C, 5% CO2, 2 uL of resazurin was added to each well at a final concentration of 0.5 mM in phosphate buffered saline (PBS) with IGEPAL (Sigma-Aldrich), 0.05% (v/v).; format: functional, organism-based
[8] = test system: Trypanosoma brucei brucei; assay: GSK_TCAKS: pIC50 Trypanosoma brucei viability assay using fluorescence intensity. Assay plates (1536-well) were prepared by dispensing 25nL of compound solution per well using an Echo acoustic dispenser (Labcyte).; format: functional, organism-based; details: Lister 427, 2 h
Trypanosoma cruzi [9] = assay: GSK_TCAKS: pIC50 Trypanosoma cruzi viability assay using beta-GAL activity. This assay was run at single shot at 5uM compound concentration per well. The biological reagents consisted of NIH-3T3 host cells and trypomastigotes parasitic cells; both cell types were set to a 3.3 * 10^5 cells/mL dilution in assay DMEM by means of a CASY cell counter device using a 60um capillary. 6 uL of the mixture were dispensed per well (about 1 * 10^3 host-cells and 1 * 10^3 parasites) with a Multidrop Combi dispenser. […] In all wells, the percentage of DMSO never exceeded 0.5%. Plates incubated for four days at 37C, 5% CO2. The substrate used for the assay fluorescence intensity (FLINT) readout was resorufin-beta-D-galactopiranoside (Sigma-Aldrich) at 5uM per well. It was diluted in PBS supplemented with the soft detergent Igepal (Fluka).; format: functional, organism-based, Mus musculus; details: Tulahuen, NIH3T3
Trypanosoma cruzi [10] = assay: as §2, with “H2C9” for “Trypanosoma cruzi”, “H9c2 Host Cardiomyocytes.” for “Infected Cells.”, “Number” for “percentage”, “H9c2 Host Cardiomyocytes nuclei to determine drug-related cytotoxicity.” for “infected cells per well as a second infection marker.”; format: functional, organism-based, Rattus norvegicus; details: H9c2, 4 h
Leishmania donovani [11] = assay: as §1, with “THP-1 Host Macrophages.” for “Amastigotes/Macrophages.”, “THP-1” for “Average number of amastigotes per macrophage”, “cell count” for “cell”; format: functional, organism-based, Homo sapiens
Trypanosoma cruzi [12] = assay: GSK_TCAKS: pIC50 Trypanosoma cruzi Imaging: Amastigotes/Cell. […] Cells were then washed once with PBS before infection. T. cruzi trypomastigotes, collected at days 5 to 8 after infection from LLC-MK2 parasite infected cultures, were allowed to swim out for 4h at 37C from a centrifuged pellet (2,500 rpm/10 min/room temperature). Trypomastigotes were then collected and counted in a CASY Cell Counter. Trypomastigotes, in supplemented DMEM, were added to H9c2 cultures in a multiplicity of infection of 1 and incubated for 18 h. Cells were washed once with PBS before incubation of the infected H9c2 monolayer with trypsin (Life-Technologies) to detach cells from the flask. Cells were counted in a CASY Cell Counter using a 150 um capillary and their density set at 5 * 10^4 cells per mL in supplemented assay DMEM. Infected H9c2 were dispensed into 384-well poly-lysine coated assay plates at 50uL per well using a Multidrop Combi dispenser. After seeding them, the plates were incubated at 37C, 5% CO2 for 72h. Cultures were then fixed and stained by addition of 50 uL of a solution containing 8% formaldehyde and 4 uM DRAQ5 DNA dye (BioStatus, UK) per well. […] Five images were collected per well for reliable statistical analysis. Automated image analysis was performed with a script developed on Acapella High Content Imaging and Analysis Software (PerkinElmer). Output: number of amastigotes per cell as infection level measurement.; format: functional, organism-based, Rattus norvegicus; details: H9c2, 4 h
NIH3T3 = assay: GSK_TCAKS: pIC50 NIH 3T3 cell line viability assay using luminiscence. Tissue culture surface treated assay plates (1536-well) were used. […] The 100% cells survival control was determined exposing the host-cells to a 0.5% DMSO concentration, whereas the 100% toxicity control was achieved by seeding the cells in presence of Amphotericin B at 50uM. Plates were incubated for four days at 37C, 5% CO2. The assay readout was developed by addition of 5uL of CellTiter-Glo Reagent following the manufacturer's instructions. Luminiscence was measured using a ViewLux.; format: functional, cell-based; details: Mus musculus, NIH3T3, 96 h

Compound | IC50 (Leishmania donovani [1]) | IC50 (Trypanosoma cruzi [2]) | IC50 (Leishmania donovani [3]) | IC50 [4] | IC50 [5] | IC50 at 48 h [6] | IC50 (Leishmania donovani [7]) | IC50 [8] | IC50 (Trypanosoma cruzi [9]) | IC50 (Trypanosoma cruzi [10]) | IC50 (Leishmania donovani [11]) | IC50 (Trypanosoma cruzi [12]) | IC50 (NIH3T3)
O=S(=O)(NCC(c1cccnc1)N1CCN(c2ccc(F)cc2)CC1)c1cccs1 (stereo not given) | > 50.1 µM | 126 nM | > 50.1 µM | > 39.8 µM | 0.0398 µM | > 100 µM | > 50.1 µM | > 39.8 µM | 158 nM | > 50.1 µM | > 50.1 µM | 126 nM | > 50.1 µM
Cc1ccc(C)c(-n2nnnc2Sc2nc([N+](=O)[O-])nn2C)c1 | > 50.1 µM | 794 nM | > 50.1 µM | 15.8 µM | > 100 µM | > 100 µM | > 50.1 µM | 12.6 µM | 501 nM | > 50.1 µM | > 50.1 µM | 251 nM | > 50.1 µM
O=c1ccn(-c2ccc([N+](=O)[O-])cc2Cl)c2ccc(F)cc12 | > 50.1 µM | 3980 nM | > 50.1 µM | > 39.8 µM | 15.8 µM | > 100 µM | > 50.1 µM | 25.1 µM | 1580 nM | > 50.1 µM | > 50.1 µM | 1260 nM | > 50.1 µM
CN(C(=O)Nc1ccc2c(c1)CCN(C1CCC1)CC2)c1ccc(C#N)cc1 | > 50.1 µM | 3980 nM | > 50.1 µM | 0.631 µM | > 100 µM | > 100 µM | 39.8 µM | 0.2 µM | 2000 nM | > 50.1 µM | > 50.1 µM | 2000 nM | 39.8 µM
COc1ccc2nccc([C@H](O)CN3CC[C@H](NC(=O)c4ccc(Br)cc4)[C@@H](O)C3)c2n1 | > 50.1 µM | 1580 nM | > 50.1 µM | 0.501 µM | 6.31 µM | > 100 µM | 3.16 µM | 0.2 µM | 251 nM | 2 µM | > 50.1 µM | 158 nM | > 50.1 µM
O=C(Nc1cccc(Cl)c1)N1CCCCC1c1cccnc1 (stereo not given) | > 50.1 µM | 200 nM | > 50.1 µM | > 39.8 µM | 0.02 µM | > 100 µM | 3.16 µM | > 39.8 µM | 178 nM | > 50.1 µM | > 50.1 µM | 200 nM | 31.6 µM
CC(CNS(=O)(=O)c1ccc(OC(F)F)cc1)c1ccc(NC(=O)c2ccncc2)cc1 (stereo not given) | 5.01 µM | 100 nM | > 50.1 µM | 20 µM | 0.0501 µM | 100 µM | > 50.1 µM | 7.94 µM | 200 nM | > 50.1 µM | 15.8 µM | 79.4 nM | > 50.1 µM
Cn1cc(CN2CCN(c3ccc4c(c3)CCN(C(=O)[C@H]3C[C@@H]3c3ccccc3)CC4)CC2)cn1 | 1 µM | 3160 nM | 31.6 µM | 39.8 µM | 15.8 µM | 50.1 µM | 0.631 µM | 25.1 µM | 1580 nM | 31.6 µM | 6.31 µM | 794 nM | 20 µM
Cc1ccc(S(=O)(=O)Cn2nnnc2C(c2cccnc2)N2CCN(c3ccccc3)CC2)cc1 (stereo not given) | > 50.1 µM | 316 nM | > 50.1 µM | > 39.8 µM | 0.2 µM | > 100 µM | 1 µM | 31.6 µM | 501 nM | > 50.1 µM | > 50.1 µM | 316 nM | 31.6 µM
Cc1cc(C#N)c([N+](=O)[O-])cc1Br | 31.6 µM | 316 nM | 39.8 µM | 3.98 µM | 7.94 µM | 31.6 µM | 25.1 µM | 0.794 µM | 200 nM | 50.1 µM | 25.1 µM | 50.1 nM | 20 µM
CC(C(=O)Nc1ccc(Br)cc1)N1CCN(c2ccc([N+](=O)[O-])cc2)CC1 (stereo not given) | > 50.1 µM | 2510 nM | > 50.1 µM | > 39.8 µM | 39.8 µM | > 100 µM | > 50.1 µM | > 39.8 µM | 2510 nM | > 50.1 µM | > 50.1 µM | 3160 nM | > 50.1 µM
Cc1cc2ncn(-c3ccc([N+](=O)[O-])cc3C#N)c2cc1C | > 50.1 µM | 2000 nM | > 50.1 µM | > 39.8 µM | > 100 µM | > 100 µM | > 50.1 µM | 20 µM | 1260 nM | > 50.1 µM | > 50.1 µM | 794 nM | > 50.1 µM
O=C(CN(c1cccc(C(F)(F)F)c1)S(=O)(=O)c1ccc(Cl)cc1)NCc1ccc(F)c(F)c1 | > 50.1 µM | 794 nM | > 50.1 µM | 25.1 µM | 0.158 µM | > 100 µM | > 50.1 µM | 10 µM | 794 nM | > 50.1 µM | 20 µM | 501 nM | 31.6 µM
COc1ccc(S(=O)(=O)NCc2ccc(-c3ccc(CN(C)CCO)cc3)cc2)cc1 | 20 µM | 2510 nM | 15.8 µM | 3.16 µM | 15.8 µM | 50.1 µM | > 50.1 µM | 3.16 µM | 39.8 nM | > 50.1 µM | 20 µM | 1260 nM | 15.8 µM
COc1ccc([N+](=O)[O-])cc1NC(=O)Nc1cccc(Cl)c1 | > 50.1 µM | 10000 nM | > 50.1 µM | 20 µM | > 100 µM | > 100 µM | > 50.1 µM | 6.31 µM | 794 nM | > 50.1 µM | 50.1 µM | 398 nM | > 50.1 µM
